Assay results as given in US4091097A, “Treatment of elevated histamine and uric acid levels” (Zaidan Hojin Biseibutsu Kagaku Kenkyu Kai, priority 1973, dated 1978).

What follows are molecules tested against T1, histidine decarboxylase (Rattus norvegicus, UniProt P16453) (assay: Inhibition of Histidine Decarboxylase (14C-histamine formation)). Settings: pH 6.8, two hours at 37° C.; read-out: Histidine Decarboxylase Inhibition ID50.
T1 construct: a crude enzyme preparation obtained from fetal rats; from tissue
T1 sequence (P16453 1-656): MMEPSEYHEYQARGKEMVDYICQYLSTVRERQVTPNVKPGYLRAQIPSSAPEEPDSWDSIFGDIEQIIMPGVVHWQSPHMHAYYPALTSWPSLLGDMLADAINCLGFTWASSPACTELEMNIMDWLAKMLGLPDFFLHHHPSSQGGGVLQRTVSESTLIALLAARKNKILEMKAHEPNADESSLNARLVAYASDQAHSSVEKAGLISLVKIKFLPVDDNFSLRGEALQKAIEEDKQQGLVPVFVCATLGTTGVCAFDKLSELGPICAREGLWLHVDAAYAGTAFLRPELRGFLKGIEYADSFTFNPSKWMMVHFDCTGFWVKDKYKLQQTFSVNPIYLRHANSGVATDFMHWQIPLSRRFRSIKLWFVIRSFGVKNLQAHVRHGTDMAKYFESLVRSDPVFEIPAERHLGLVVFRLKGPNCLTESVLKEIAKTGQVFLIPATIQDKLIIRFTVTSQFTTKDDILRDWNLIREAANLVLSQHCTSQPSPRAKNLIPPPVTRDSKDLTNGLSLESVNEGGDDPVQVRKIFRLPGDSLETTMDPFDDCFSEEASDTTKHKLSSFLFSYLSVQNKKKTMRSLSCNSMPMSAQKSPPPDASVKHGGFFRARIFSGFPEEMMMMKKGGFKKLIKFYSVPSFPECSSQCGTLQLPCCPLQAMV
Assay type: biochemical, fetal rats
Experimental: After two hours of incubation at 37° C., the histamine 2-^14 C formed was collected on an ion exchange resin ("Amberlite" CG-50, ammonia type) from which, after washing with water, the histamine was liberated in 1N aqueous ammonia solution and radioactivity was measured.

Row | SMILES | IC50 [nM]
1 | COc1c(Cl)cc(NC(=O)c2ccccc2O)cc1Cl [Compound 11] | 210
2 | Cc1cc(NC(=O)c2ccccc2O)cc(Cl)c1O [Compound 12] | 120
3 | O=C(Nc1cc(F)c(O)c(Cl)c1)c1ccccc1O [Compound 13] | 230
4 | CCc1cc(NC(=O)c2ccc(O)cc2O)cc(F)c1OC [Compound 16] | 810
5 | CCc1ccc(C(=O)Nc2cc(Br)c(O)c(CC)c2)c(O)c1 [Compound 17] | 460
6 | CCc1ccc(O)c(C(=O)Nc2cc(Br)c(O)c(CC)c2)c1 [Compound 18] | 710
7 | CCOc1ccc(NC(=O)c2ccc(F)cc2O)cc1Cl [Compound 21] | 500
8 | O=C(Nc1cc(Cl)c(O)c(C(=O)O)c1)c1cc(O)ccc1O [Compound 23] | 500
9 | COc1c(F)cc(NC(=O)c2cc(Cl)ccc2O)cc1Cl [Compound 26] | 690
10 | CCc1cc(NC(=O)c2ccc(C)cc2O)cc(C(=O)OC)c1O [Compound 28] | 790
11 | CCc1cc(NC(=O)c2cc(C)ccc2O)cc(C(=O)OC)c1O [Compound 29] | 980
12 | CC(=O)Oc1cc(O)ccc1C(=O)Nc1cc(C)c(OC(C)=O)c(Cl)c1 [Compound 34] | 390
13 | CC(=O)Oc1ccc(O)cc1C(=O)Nc1cc(C)c(OC(C)=O)c(Cl)c1 [Compound 35] | 600
14 | CCC(=O)Oc1ccc(NC(=O)c2ccc(O)cc2OC(=O)CC)cc1Br [Compound 36] | 490
15 | CC(=O)Oc1cc(F)ccc1C(=O)Nc1cc(C)c(OC(C)=O)c(Br)c1 [Compound 37] | 420
16 | CCC(=O)Oc1ccccc1C(=O)Nc1cc(Cl)c(N)c(Cl)c1 [Compound 38] | 200
17 | CC(=O)Oc1ccc(C(=O)Nc2cc(Cl)c(O)c(Cl)c2)c(OC(C)=O)c1 [Compound 39] | 190
18 | CC(=O)Oc1ccc(OC(C)=O)c(C(=O)Nc2cc(Cl)c(O)c(Cl)c2)c1 [Compound 40] | 310
19 | CCOC(=O)c1cc(NC(=O)c2ccccc2OC(=O)c2ccccc2)cc(Cl)c1O [Compound 41] | 320
20 | CCOC(=O)c1cc(NC(=O)c2ccccc2OC(C)=O)cc(Cl)c1O [Compound 44] | 230
